# Experimental data reported in US20240092790A1, “DIHYDROFUROPYRIDINE DERIVATIVES AS RHO- KINASE INHIBITORS” (CHIESI FARMACEUTICI S.P.A., priority 2020, published 2024).
# Legend:
# Format in all cases: biochemical
# PKA = PKA (Homo sapiens, UniProt P17612); experiment: In vitro inhibitory activity assay for PKA (ADP-Glo), reported as selectivity ratio vs ROCK2; conditions: Ki value for PKA divided by Ki value of ROCK2
# Description: In Vitro Inhibitory Activity Assay Description for PKA
# The effectiveness of compounds of the present invention to inhibit PKA activity can be determined in a 10 μl assay containing 40 mM Tris pH7.5, 20 mM MgCl2 0.1 mg/ml BSA, 50 μM DTT and 260 μM peptide substrate (kemptide) using an ADP-Glo kit (Promega). Compounds were dissolved in DMSO such that the final concentration of DMSO was 1% in the assay. All reactions/incubations are performed at 25° C. Compound and PKA enzyme (6 μl) were mixed and incubated for 30 mins. Reactions were initiated by addition of ATP (4 μl) such that the final concentration of ATP in the assay was 10 μM. After a 30 minute incubation 10p of ADP-Glo Reagent was added and after a further 1 hour incubation 20 μl of Kinase Detection Buffer was added and the mixture incubated for a further 45 minutes. The luminescent signal was measured on a luminometer. […] Compounds were tested in dose-response format and the inhibition of kinase activity was calculated at each concentration of compound. To determine the IC50 (concentration of compound required to inhibit 50% of the enzyme activity) data were fit to a plot of % inhibition vs Log10 compound concentration using a sigmoidal fit with a variable slope and fixing the maximum to 100% and the minimum to 0%. To determine the Ki values the Cheng-Prusoff equation was utilized (Ki=IC50/(1+[S]/Km).
# In vitro inhibitory activities for PKA were reported as selectivity ratio vs. ROCK-2.
# ROCK1 = ROCK1 (Homo sapiens, UniProt Q13464); experiment: In vitro inhibitory activity assay ROCK1 (ADP-Glo); conditions: ATP 200 μM, Cheng-Prusoff; read-out: ROCK 1 (Ki, range of activity)
# Description: (§1) In Vitro Inhibitory Activity Assay Description ROCK1 and ROCK2
# (§2) The effectiveness of compounds of the present invention to inhibit Rho kinase activity can be determined in a 10 μl assay containing 40 mM Tris pH7.5, 20 mM MgCl2 0.1 mg/mL BSA, 50 μM DTT and 2.5 μM peptide substrate (Myelin Basic Protein) using an ADP-Glo kit (Promega). Compounds were dissolved in DMSO such that the final concentration of DMSO was 1% in the assay. All reactions/incubations are performed at 25° C. Compound (2 ul) and either Rho kinase 1 or 2 (4 μl) were mixed and incubated for 30 mins. Reactions were initiated by addition of ATP (4 μl) such that the final concentration of ATP in the assay was 200 μM. After a 1 hour incubation 10 μl of ADP-Glo Reagent was added and after a further 1 hour incubation 20 ul of Kinase Detection Buffer was added and the mixture incubated for a further 45 minutes. The luminescent signal was measured on a luminometer. […] Compounds were tested in dose-response format and the inhibition of kinase activity was calculated at each concentration of compound. To determine the IC50 (concentration of compound required to inhibit 50% of the enzyme activity) data were fit to a plot of % inhibition vs Log 10 compound concentration using a sigmoidal fit with a variable slope and fixing the maximum to 100% and the minimum to 0%. To determine the Ki values the Cheng-Prusoff equation was utilized (Ki=IC50/(1+[S]/Km).
# ROCK2 = ROCK2 (Homo sapiens, UniProt O75116); experiment: In vitro inhibitory activity assay ROCK2 (ADP-Glo); conditions: ATP 200 μM, Cheng-Prusoff; read-out: ROCK2 (Ki, range of activity)
# Description: as §1, §2
# Chain of ROCK2 (O75116 whole entry): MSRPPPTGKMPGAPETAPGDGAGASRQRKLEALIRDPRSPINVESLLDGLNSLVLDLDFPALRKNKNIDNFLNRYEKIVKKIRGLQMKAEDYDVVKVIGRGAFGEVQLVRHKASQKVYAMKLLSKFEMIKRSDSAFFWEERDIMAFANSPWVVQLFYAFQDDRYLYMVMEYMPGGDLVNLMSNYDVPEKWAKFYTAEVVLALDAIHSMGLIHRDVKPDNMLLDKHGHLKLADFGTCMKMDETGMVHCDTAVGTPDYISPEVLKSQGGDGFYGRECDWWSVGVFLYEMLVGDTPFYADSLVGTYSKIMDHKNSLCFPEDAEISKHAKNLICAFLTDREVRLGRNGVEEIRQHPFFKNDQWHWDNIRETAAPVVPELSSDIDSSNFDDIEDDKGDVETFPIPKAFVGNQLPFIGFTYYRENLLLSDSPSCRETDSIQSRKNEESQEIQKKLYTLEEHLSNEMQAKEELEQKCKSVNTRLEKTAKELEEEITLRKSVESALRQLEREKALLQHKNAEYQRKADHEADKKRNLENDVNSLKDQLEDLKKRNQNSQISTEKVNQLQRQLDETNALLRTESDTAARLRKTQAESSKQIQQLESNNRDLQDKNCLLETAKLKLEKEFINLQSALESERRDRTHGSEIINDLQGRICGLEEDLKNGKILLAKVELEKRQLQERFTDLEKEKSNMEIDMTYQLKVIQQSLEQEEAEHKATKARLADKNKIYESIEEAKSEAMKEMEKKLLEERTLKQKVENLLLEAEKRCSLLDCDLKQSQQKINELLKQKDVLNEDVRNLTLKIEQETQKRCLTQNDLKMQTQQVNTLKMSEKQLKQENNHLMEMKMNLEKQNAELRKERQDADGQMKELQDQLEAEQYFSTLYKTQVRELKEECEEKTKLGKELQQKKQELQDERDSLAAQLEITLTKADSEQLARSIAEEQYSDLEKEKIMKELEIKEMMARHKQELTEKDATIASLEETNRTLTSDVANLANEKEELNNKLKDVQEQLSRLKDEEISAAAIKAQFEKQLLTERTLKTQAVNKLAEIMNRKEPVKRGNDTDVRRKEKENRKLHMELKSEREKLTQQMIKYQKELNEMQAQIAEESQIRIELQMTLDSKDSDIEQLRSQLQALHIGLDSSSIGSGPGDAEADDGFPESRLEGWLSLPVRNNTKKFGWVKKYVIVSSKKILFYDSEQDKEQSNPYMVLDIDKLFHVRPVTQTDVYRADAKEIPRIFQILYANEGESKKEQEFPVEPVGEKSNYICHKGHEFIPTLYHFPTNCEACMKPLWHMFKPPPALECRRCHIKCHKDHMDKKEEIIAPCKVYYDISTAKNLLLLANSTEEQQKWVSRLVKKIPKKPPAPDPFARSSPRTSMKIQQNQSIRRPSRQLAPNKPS
# Chain of ROCK1 (Q13464 whole entry): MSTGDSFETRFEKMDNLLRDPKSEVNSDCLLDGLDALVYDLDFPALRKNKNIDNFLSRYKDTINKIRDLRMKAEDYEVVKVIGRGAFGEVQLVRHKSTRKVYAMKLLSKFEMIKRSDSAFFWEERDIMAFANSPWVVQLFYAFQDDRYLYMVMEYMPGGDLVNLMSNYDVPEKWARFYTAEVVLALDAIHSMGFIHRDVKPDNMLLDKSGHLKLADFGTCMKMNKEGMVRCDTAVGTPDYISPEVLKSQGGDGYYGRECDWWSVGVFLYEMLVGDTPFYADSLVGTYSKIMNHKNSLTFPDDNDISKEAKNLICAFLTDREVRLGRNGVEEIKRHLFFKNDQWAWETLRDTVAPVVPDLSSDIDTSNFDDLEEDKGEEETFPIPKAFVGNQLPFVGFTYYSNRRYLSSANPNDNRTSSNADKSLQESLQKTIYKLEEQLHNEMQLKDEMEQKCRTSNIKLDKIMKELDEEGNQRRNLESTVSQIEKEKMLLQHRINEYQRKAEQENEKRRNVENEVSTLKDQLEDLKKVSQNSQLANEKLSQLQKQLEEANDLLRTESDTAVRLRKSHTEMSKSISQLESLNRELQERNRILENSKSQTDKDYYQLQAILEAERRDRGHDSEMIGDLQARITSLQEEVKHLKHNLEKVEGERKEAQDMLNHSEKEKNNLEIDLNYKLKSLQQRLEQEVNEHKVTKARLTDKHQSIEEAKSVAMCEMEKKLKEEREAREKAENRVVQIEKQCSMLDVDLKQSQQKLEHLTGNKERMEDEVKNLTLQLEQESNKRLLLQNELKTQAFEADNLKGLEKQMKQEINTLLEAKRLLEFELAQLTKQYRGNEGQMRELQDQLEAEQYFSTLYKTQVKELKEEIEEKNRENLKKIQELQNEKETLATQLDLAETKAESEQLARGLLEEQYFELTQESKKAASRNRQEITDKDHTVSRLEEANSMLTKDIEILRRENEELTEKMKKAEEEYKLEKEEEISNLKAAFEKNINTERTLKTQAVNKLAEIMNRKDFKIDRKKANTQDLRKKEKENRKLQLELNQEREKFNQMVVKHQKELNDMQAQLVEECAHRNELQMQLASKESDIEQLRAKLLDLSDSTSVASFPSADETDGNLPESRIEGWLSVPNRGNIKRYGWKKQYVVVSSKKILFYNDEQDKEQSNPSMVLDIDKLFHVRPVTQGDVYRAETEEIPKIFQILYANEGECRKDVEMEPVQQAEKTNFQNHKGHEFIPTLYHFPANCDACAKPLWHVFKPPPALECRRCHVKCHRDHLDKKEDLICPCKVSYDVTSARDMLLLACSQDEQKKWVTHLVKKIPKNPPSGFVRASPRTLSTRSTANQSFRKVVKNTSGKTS
Structure (SMILES),Ratio (PKA/ROCK2) (PKA),Ki (ROCK1) [nM],Ki (ROCK2) [nM]
"C[C@@H]1CCC[C@H](C)N1CCNC(=O)c1cccc(CNc2ncc(-c3ccnc(N)n3)c3c2CCO3)c1 [Example 19, 3-(((7-(2-Aminopyrimidin-4-yl)-2,3-dihydrofuro[3,2-c]pyridin-4-yl)amino)methyl)-N-(2-((2R,6S)-2,6-dimethylpiperidin-1-yl)ethyl)benzamide]",*** (ratio≥10),≤ 3,≤ 3
"Nc1nccc(-c2cnc(NCc3cccc(C(=O)N[C@H]4C[C@@H](OC(F)F)C4)c3)c3c2OCC3)n1 [Example 26, 3-(((7-(2-aminopyrimidin-4-yl)-2,3-dihydrofuro[3,2-c]pyridin-4-yl)amino)methyl)-N-((1s,3s)-3-(difluoromethoxy)cyclobutyl)benzamide]",*** (ratio≥10),≤ 3,≤ 3
"COCCCNC(=O)c1cc(F)cc(CNc2ncc(-c3ccnc(N)n3)c3c2CCO3)c1 [Example 60, 3-(((7-(2-Aminopyrimidin-4-yl)-2,3-dihydrofuro[3,2-c]pyridin-4-yl)amino)methyl)-5-fluoro-N-(3-methoxypropyl)benzamide]",*** (ratio≥10),≤ 3,≤ 3
"CNC(=O)c1cccc(CNc2ncc(-c3ccnc(N)n3)c3c2CCO3)c1F [Example 54, 3-(((7-(2-Aminopyrimidin-4-yl)-2,3-dihydrofuro[3,2-c]pyridin-4-yl)amino)methyl)-2-fluoro-N-methylbenzamide]",*** (ratio≥10),> 30,3 to 30
"Nc1nccc(-c2cnc(NCc3ccc(F)c(C(=O)NC4CCOCC4)c3)c3c2OCC3)n1 [Example 58, 5-(((7-(2-Aminopyrimidin-4-yl)-2,3-dihydrofuro[3,2-c]pyridin-4-yl)amino)methyl)-2-fluoro-N-(tetrahydro-2H-pyran-4-yl)benzamide]",*** (ratio≥10),3 to 30,≤ 3
"Nc1nccc(-c2cnc(NCc3cc(C(=O)NC4CCOCC4)ccc3F)c3c2OCC3)n1 [Example 61, 3-(((7-(2-Aminopyrimidin-4-yl)-2,3-dihydrofuro[3,2-c]pyridin-4-yl)amino)methyl)-4-fluoro-N-(tetrahydro-2H-pyran-4-yl)benzamide]",*** (ratio≥10),> 30,3 to 30
"CN1CCC(NC(=O)c2cccc(CNc3ncc(-c4ccnc(N)n4)c4c3CCO4)c2)CC1 [Example 13, 3-(((7-(2-Aminopyrimidin-4-yl)-2,3-dihydrofuro[3,2-c]pyridin-4-yl)amino)methyl)-N-(1-methylpiperidin-4-yl)benzamide]",*** (ratio≥10),≤ 3,≤ 3
"COCCCNC(=O)c1cc(CNc2ncc(-c3ccnc(N)n3)c3c2CCO3)ccc1F [Example 57, 5-(((7-(2-Aminopyrimidin-4-yl)-2,3-dihydrofuro[3,2-c]pyridin-4-yl)amino)methyl)-2-fluoro-N-(3-methoxypropyl)benzamide]",*** (ratio≥10),3 to 30,≤ 3
"Nc1nccc(-c2cnc(NCc3cccc(C(=O)NCCCOC(F)F)c3)c3c2OCC3)n1 [Example 14, 3-(((7-(2-Aminopyrimidin-4-yl)-2,3-dihydrofuro[3,2-c]pyridin-4-yl)amino)methyl)-N-(3-(difluoromethoxy)propyl)benzamide]",*** (ratio≥10),≤ 3,≤ 3
"Nc1nccc(-c2cnc(NCc3cccc(C(=O)NCCN4CCCCC4)c3)c3c2OCC3)n1 [Example 5, 3-(((7-(2-Aminopyrimidin-4-yl)-2,3-dihydrofuro[3,2-c]pyridin-4-yl)amino)methyl)-N-(2-(piperidin-1-yl)ethyl)benzamide]",*** (ratio≥10),≤ 3,≤ 3

# More lines, now with the values ahead:
Ratio (PKA/ROCK2) (PKA),Ki (ROCK1) [nM],Ki (ROCK2) [nM],Structure (SMILES)
*** (ratio≥10),≤ 3,≤ 3,"Nc1nccc(-c2cnc(NCc3cccc(C(=O)NCC4CC4)c3)c3c2OCC3)n1 [Example 25, 3-(((7-(2-Aminopyrimidin-4-yl)-2,3-dihydrofuro[3,2-c]pyridin-4-yl)amino)methyl)-N-(cyclopropylmethyl)benzamide]"
*** (ratio≥10),≤ 3,≤ 3,"CC(C)(O)CNC(=O)c1cccc(CNc2ncc(-c3ccnc(N)n3)c3c2CCO3)c1 [Example 17, 3-(((7-(2-Aminopyrimidin-4-yl)-2,3-dihydrofuro[3,2-c]pyridin-4-yl)amino)methyl)-N-(2-hydroxy-2-methylpropyl)benzamide]"
*** (ratio≥10),≤ 3,≤ 3,"Nc1nccc(-c2cnc(NCc3cccc(C(=O)N[C@@H]4C[C@@H]4F)c3)c3c2OCC3)n1 [Example 37, 3-(((7-(2-Aminopyrimidin-4-yl)-2,3-dihydrofuro[3,2-c]pyridin-4-yl)amino)methyl)-N-((1R,2S)-2-fluorocyclopropyl)benzamide]"
*** (ratio≥10),≤ 3,≤ 3,"Nc1nccc(-c2cnc(NCc3cccc(C(=O)NCCCF)c3)c3c2OCC3)n1 [Example 29, 3-(((7-(2-Aminopyrimidin-4-yl)-2,3-dihydrofuro[3,2-c]pyridin-4-yl)amino)methyl)-N-(3-fluoropropyl)benzamide]"
*** (ratio≥10),≤ 3,≤ 3,"CCOCCNC(=O)c1cccc(CNc2ncc(-c3ccnc(N)n3)c3c2CCO3)c1 [Example 20, 3-(((7-(2-Aminopyrimidin-4-yl)-2,3-dihydrofuro[3,2-c]pyridin-4-yl)amino)methyl)-N-(2-ethoxyethyl)benzamide]"
*** (ratio≥10),≤ 3,≤ 3,"CO[C@H]1C[C@H](NC(=O)c2cccc(CNc3ncc(-c4ccnc(N)n4)c4c3CCO4)c2)C1 [Example 41, 3-(((7-(2-Aminopyrimidin-4-yl)-2,3-dihydrofuro[3,2-c]pyridin-4-yl)amino)methyl)-N-((1R,3R)-3-methoxycyclobutyl)benzamide]"
*** (ratio≥10),≤ 3,≤ 3,"CC(C)(C)N1CC(CNC(=O)c2cccc(CNc3ncc(-c4ccnc(N)n4)c4c3CCO4)c2)CC1=O (single isomer, unassigned) [Example 32, 3-(((7-(2-Aminopyrimidin-4-yl)-2,3-dihydrofuro[3,2-c]pyridin-4-yl)amino)methyl)-N-((1-(tert-butyl)-5-oxopyrrolidin-3-yl)methyl)benzamide]"
*** (ratio≥10),≤ 3,≤ 3,"Nc1nccc(-c2cnc(NCc3cccc(C(=O)N[C@H]4C[C@H](F)C4)c3)c3c2OCC3)n1 [Example 49, 3-(((7-(2-Aminopyrimidin-4-yl)-2,3-dihydrofuro[3,2-c]pyridin-4-yl)amino)methyl)-N-((1r,3r)-3-fluorocyclobutyl)benzamide]"
*** (ratio≥10),≤ 3,≤ 3,"Nc1nccc(-c2cnc(NCc3cccc(C(=O)NCC4CCO4)c3)c3c2OCC3)n1 (stereo not drawn) [Example 38, 3-(((7-(2-Aminopyrimidin-4-yl)-2,3-dihydrofuro[3,2-c]pyridin-4-yl)amino)methyl)-N-(oxetan-2-ylmethyl)benzamide]"
*** (ratio≥10),≤ 3,≤ 3,"Nc1nccc(-c2cnc(NCc3cccc(C(=O)NCCCN4CCOCC4)c3)c3c2OCC3)n1 [Example 16, 3-(((7-(2-Aminopyrimidin-4-yl)-2,3-dihydrofuro[3,2-c]pyridin-4-yl)amino)methyl)-N-(3-morpholinopropyl)benzamide]"
*** (ratio≥10),3 to 30,3 to 30,"CC(C)NC(=O)c1cccc(CNc2ncc(-c3ccnc(N)n3)c3c2CCO3)c1 [Example 11, 3-(((7-(2-Aminopyrimidin-4-yl)-2,3-dihydrofuro[3,2-c]pyridin-4-yl)amino)methyl)-N-isopropylbenzamide]"
